Data: patent US8198273B2, “Compounds and methods for kinase modulation, and indications therefor” (Plexxikon Inc., priority 2009, dated 2012)

Key:
B-Raf V600E = B-Raf V600E (Homo sapiens, UniProt P15056, V600E); assay: B-Raf V600E biochemical kinase inhibition (AlphaScreen, biotin-MEK1 substrate); conditions: 100 μM ATP
Method in brief: (§1)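 Serial 1:3 dilutions of compound (0.1 mM DMSO stock, eight points) were added first, then ATP to start the reaction at 100 μM final.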

CYP1A2 = biological target: T1, CYP1A2 (Homo sapiens, UniProt P05177); assay: CYP1A2 inhibition (fluorescent substrate); format: in vitro ADME; conditions: CYP1A2, CEC substrate; read-out: Cyp IC50 1A2
T1 sequence (P05177 1-516): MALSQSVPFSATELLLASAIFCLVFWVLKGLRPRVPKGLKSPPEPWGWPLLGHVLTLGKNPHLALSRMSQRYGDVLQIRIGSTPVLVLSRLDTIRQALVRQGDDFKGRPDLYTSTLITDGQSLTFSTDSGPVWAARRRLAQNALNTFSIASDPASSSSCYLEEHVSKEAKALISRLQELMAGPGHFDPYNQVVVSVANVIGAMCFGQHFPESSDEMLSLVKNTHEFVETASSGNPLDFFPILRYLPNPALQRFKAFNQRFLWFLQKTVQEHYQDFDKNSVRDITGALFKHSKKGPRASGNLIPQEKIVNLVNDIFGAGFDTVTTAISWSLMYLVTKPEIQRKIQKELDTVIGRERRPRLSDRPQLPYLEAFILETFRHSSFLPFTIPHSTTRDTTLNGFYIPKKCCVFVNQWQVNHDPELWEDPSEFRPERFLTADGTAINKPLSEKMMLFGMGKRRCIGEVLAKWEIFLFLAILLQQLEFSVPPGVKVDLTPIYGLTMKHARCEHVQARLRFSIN
Method: (§2) CYP (Cytochrome P450) enzymes are the major drug metabolizing enzymes present in the liver. The inhibition of CYP enzyme activity (IC50) for each of CYP1A2, CYP2C19, CYP2C9, CYP2D6, CYP3A4(BFC) and CYP3A4(BQ) is determined for compounds, where inhibition of metabolism of a known substrate leads to a decrease in the fluorescence of the metabolized product. The fluorescence of the product is monitored as a function of compound concentration.
(§3) Compounds are dissolved in dimethyl sulfoxide to a concentration of 100 mM. These are diluted 1 μL into 82 μL of acetonitrile. […] These are then serially diluted 1:1 (160 μL to 160 μL co-factor mix) for a total of 10 points. A 10 μL aliquot of this final mixture is dispensed into 384 well assay plates and incubated for 10 minutes at 37° C. […] Assay plates are incubated at 37° C. […] The signal versus compound concentration is used to determine the IC50. The enzymes and substrates for this assay are obtained from BD Biosciences.

CYP2D6 = CYP2D6 (Homo sapiens, UniProt P10635); assay: CYP2D6 inhibition (fluorescent substrate); format: in vitro ADME; conditions: CYP2D6, AMMC substrate; read-out: Cyp IC50 2D6
Method: as §2, §3

c-Raf-1 = c-Raf-1 (Homo sapiens, UniProt P04049); assay: c-Raf-1 biochemical kinase inhibition (AlphaScreen, biotin-MEK1 substrate); conditions: 100 μM ATP
Method in brief: as §1

B-Raf V600E, sequence (P15056 whole entry V600E): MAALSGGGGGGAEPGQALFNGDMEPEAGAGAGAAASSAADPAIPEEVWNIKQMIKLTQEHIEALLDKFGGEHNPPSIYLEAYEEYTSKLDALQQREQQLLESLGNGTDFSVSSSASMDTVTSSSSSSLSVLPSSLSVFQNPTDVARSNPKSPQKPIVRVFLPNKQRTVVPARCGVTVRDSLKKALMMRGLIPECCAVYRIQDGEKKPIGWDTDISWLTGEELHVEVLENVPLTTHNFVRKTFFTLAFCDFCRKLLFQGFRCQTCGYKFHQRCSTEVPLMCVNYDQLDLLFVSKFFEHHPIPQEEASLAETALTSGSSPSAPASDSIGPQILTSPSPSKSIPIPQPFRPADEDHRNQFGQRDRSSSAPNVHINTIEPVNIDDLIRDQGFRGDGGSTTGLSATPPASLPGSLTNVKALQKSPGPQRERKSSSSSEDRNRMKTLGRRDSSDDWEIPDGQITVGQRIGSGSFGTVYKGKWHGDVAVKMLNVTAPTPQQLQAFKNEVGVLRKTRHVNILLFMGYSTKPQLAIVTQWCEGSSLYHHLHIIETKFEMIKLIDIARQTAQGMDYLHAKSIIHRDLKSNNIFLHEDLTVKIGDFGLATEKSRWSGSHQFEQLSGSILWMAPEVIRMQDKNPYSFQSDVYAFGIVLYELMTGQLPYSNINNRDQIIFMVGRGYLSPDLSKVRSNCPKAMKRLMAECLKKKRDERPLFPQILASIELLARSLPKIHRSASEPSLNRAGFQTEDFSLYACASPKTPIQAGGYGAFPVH
c-Raf-1, sequence (P04049 whole entry): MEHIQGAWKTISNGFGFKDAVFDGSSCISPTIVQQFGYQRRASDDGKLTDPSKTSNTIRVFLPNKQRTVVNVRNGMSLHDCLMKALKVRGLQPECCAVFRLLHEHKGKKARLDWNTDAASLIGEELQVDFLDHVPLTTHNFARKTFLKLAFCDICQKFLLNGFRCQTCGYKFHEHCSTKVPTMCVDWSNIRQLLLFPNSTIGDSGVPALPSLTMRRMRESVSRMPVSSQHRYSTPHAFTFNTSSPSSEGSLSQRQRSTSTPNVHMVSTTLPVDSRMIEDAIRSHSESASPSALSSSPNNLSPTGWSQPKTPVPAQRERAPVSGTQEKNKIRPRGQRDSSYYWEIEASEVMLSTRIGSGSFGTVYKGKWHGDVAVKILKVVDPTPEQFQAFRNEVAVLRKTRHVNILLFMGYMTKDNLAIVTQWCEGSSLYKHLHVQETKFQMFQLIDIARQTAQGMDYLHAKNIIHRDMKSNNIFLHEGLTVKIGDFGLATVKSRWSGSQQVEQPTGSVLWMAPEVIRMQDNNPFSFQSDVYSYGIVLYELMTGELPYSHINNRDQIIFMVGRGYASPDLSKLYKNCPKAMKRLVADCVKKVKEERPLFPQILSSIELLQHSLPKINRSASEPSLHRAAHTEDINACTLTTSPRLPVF
CYP2D6, sequence (P10635 whole entry): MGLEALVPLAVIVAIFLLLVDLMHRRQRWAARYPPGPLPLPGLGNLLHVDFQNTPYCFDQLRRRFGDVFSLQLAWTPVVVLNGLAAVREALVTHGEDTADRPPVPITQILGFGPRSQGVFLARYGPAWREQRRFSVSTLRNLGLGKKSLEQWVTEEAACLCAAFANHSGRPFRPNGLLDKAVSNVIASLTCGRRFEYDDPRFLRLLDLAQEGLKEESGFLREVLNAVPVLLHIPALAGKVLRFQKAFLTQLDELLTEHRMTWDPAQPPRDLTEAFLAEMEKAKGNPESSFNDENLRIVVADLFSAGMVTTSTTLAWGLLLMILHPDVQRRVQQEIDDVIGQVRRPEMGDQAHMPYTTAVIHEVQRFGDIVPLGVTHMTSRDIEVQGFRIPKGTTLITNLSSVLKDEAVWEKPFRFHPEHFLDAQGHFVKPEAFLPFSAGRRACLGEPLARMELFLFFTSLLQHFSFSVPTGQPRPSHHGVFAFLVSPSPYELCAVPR

| Structure (SMILES) | IC50 (B-Raf V600E) [µM] | IC50 (CYP1A2) [µM] | IC50 (CYP2D6) [µM] | IC50 (c-Raf-1) [µM] |
| --- | --- | --- | --- | --- |
| CCCS(=O)(=O)Nc1ccc(F)c(C(=O)c2c[nH]c3ncc(-c4ccc(C#CCN(CC)CC)nc4)cc23)c1F [P-2222, Propane-1-sulfonic acid (3-{5-[6-(3-diethylamino-prop-1-ynyl)-pyridin-3-yl]-1H-pyrrolo[2,3-b]pyridine-3-carbonyl}-2,4-difluoro-phenyl)-amide] | < 0.01 | > 10 | 5 to 10 | < 0.01 |
| CCCS(=O)(=O)Nc1ccc(F)c(C(=O)c2c[nH]c3ncc(-c4ccc(C)nc4)cc23)c1F [P-2213, Propane-1-sulfonic acid {2,4-difluoro-3-[5-(6-methyl-pyridin-3-yl)-1H-pyrrolo[2,3-b]pyridine-3-carbonyl]-phenyl}-amide] | < 0.01 | > 10 | > 10 | < 0.01 |
| N#Cc1cnc2[nH]cc(C(=O)c3cccc(NS(=O)(=O)c4cccc(F)c4)c3F)c2c1 [P-2053, N-[3-(5-Cyano-1H-pyrrolo[2,3-b]pyridine-3-carbonyl)-2-fluoro-phenyl]-3-fluoro-benzenesulfonamide] | < 0.01 | > 10 | > 10 | < 0.01 |
| CCCS(=O)(=O)Nc1ccc(F)c(C(=O)c2c[nH]c3ncc(-c4ccc(CCCOC)nc4)cc23)c1F [P-2226, Propane-1-sulfonic acid (2,4-difluoro-3-{5-[6-(3-methoxy-propyl)-pyridin-3-yl]-1H-pyrrolo[2,3-b]pyridine-3-carbonyl}-phenyl)-amide] | < 0.01 | > 10 | > 10 | < 0.1 |
| CCCS(=O)(=O)Nc1ccc(F)c(C(=O)c2c[nH]c3ncc(-c4ccc(S(=O)(=O)CC)cc4)cc23)c1F [P-2218, Propane-1-sulfonic acid {3-[5-(4-ethanesulfonyl-phenyl)-1H-pyrrolo[2,3-b]pyridine-3-carbonyl]-2,4-difluoro-phenyl}-amide] | < 0.1 | > 10 | > 10 | < 0.1 |
| CCCS(=O)(=O)Nc1ccc(F)c(C(=O)c2c[nH]c3ncc(-c4ccc(C(=O)NCC)nc4)cc23)c1F [P-2151, 5-{3-[2,6-Difluoro-3-(propane-1-sulfonylamino)-benzoyl]-1H-pyrrolo[2,3-b]pyridin-5-yl}-pyridine-2-carboxylic acid ethylamide] | < 0.01 | > 10 | > 10 | < 0.01 |
| COc1ccnc2[nH]cc(C(=O)c3c(F)ccc(NS(=O)(=O)c4c(F)cccc4F)c3F)c12 [P-2031, N-[2,4-Difluoro-3-(4-methoxy-1H-pyrrolo[2,3-b]pyridine-3-carbonyl)-phenyl]-2,6-difluoro-benzenesulfonamide] | < 0.1 | > 10 | > 10 | < 0.1 |
| N#Cc1ccnc2[nH]cc(C(=O)c3c(F)ccc(NS(=O)(=O)c4ccccc4F)c3F)c12 [P-2020, N-[3-(4-Cyano-1H-pyrrolo[2,3-b]pyridine-3-carbonyl)-2,4-difluoro-phenyl]-2-fluoro-benzenesulfonamide] | < 0.01 | > 10 | > 10 | < 0.01 |
| COc1ccnc2[nH]cc(C(=O)c3c(F)ccc(NS(=O)(=O)c4cc(F)ccc4F)c3F)c12 [P-2022, N-[2,4-Difluoro-3-(4-methoxy-1H-pyrrolo[2,3-b]pyridine-3-carbonyl)-phenyl]-2,5-difluoro-benzenesulfonamide] | < 0.01 | > 10 | > 10 | < 0.01 |
| CCCc1ccc(-c2cnc3[nH]cc(C(=O)c4c(F)ccc(NS(=O)(=O)CCC)c4F)c3c2)cn1 [P-2224, Propane-1-sulfonic acid {2,4-difluoro-3-[5-(6-propyl-pyridin-3-yl)-1H-pyrrolo[2,3-b]pyridine-3-carbonyl]-phenyl}-amide] | < 0.01 | > 10 | > 10 | < 0.01 |
| COc1cnc2[nH]cc(C(=O)c3c(F)ccc(NS(=O)(=O)c4cc(F)ccc4F)c3F)c2c1 [P-2010, N-[2,4-Difluoro-3-(5-methoxy-1H-pyrrolo[2,3-b]pyridine-3-carbonyl)-phenyl]-2,5-difluoro-benzenesulfonamide] | < 0.01 | > 10 | > 10 | < 0.01 |
| CCCS(=O)(=O)Nc1ccc(F)c(C(=O)c2c[nH]c3ncc(-c4ccc(N)nc4)cc23)c1F [P-2214, Propane-1-sulfonic acid {3-[5-(6-amino-pyridin-3-yl)-1H-pyrrolo[2,3-b]pyridine-3-carbonyl]-2,4-difluoro-phenyl}-amide] | < 0.01 | > 10 | > 10 | < 0.01 |
| CCCS(=O)(=O)Nc1ccc(F)c(C(=O)c2c[nH]c3ncc(-c4cncnc4)cc23)c1F [P-2162, Propane-1-sulfonic acid [2,4-difluoro-3-(5-pyrimidin-5-yl-1H-pyrrolo[2,3-b]pyridine-3-carbonyl)-phenyl]-amide] | < 0.01 | < 5 | > 10 | < 0.01 |
| N#Cc1cnc2[nH]cc(C(=O)c3cccc(NS(=O)(=O)c4c(F)cccc4F)c3F)c2c1 [P-2054, N-[3-(5-Cyano-1H-pyrrolo[2,3-b]pyridine-3-carbonyl)-2-fluoro-phenyl]-2,6-difluoro-benzenesulfonamide] | < 0.01 | > 10 | > 10 | < 0.1 |
| CCCS(=O)(=O)Nc1ccc(F)c(C(=O)c2c[nH]c3ncc(-c4cnc(N5CCCC5)nc4)cc23)c1F [P-2219, Propane-1-sulfonic acid {2,4-difluoro-3-[5-(2-pyrrolidin-1-yl-pyrimidin-5-yl)-1H-pyrrolo[2,3-b]pyridine-3-carbonyl]-phenyl}-amide] | < 0.1 | > 10 | > 10 | < 0.1 |
| O=C(c1c(F)ccc(NS(=O)(=O)c2cc(F)ccc2F)c1F)c1c[nH]c2ncc(Cl)cc12 [P-2002, N-[3-(5-Chloro-1H-pyrrolo[2,3-b]pyridine-3-carbonyl)-2,4-difluoro-phenyl]-2,5-difluoro-benzenesulfonamide] | < 0.01 | > 10 | > 10 | < 0.01 |
| CCCS(=O)(=O)Nc1ccc(F)c(C(=O)c2c[nH]c3ncc(-c4ccc(F)nc4)cc23)c1F [P-2155, Propane-1-sulfonic acid {2,4-difluoro-3-[5-(6-fluoro-pyridin-3-yl)-1H-pyrrolo[2,3-b]pyridine-3-carbonyl]-phenyl}-amide] | < 0.01 | > 10 | > 10 | < 0.01 |
| CCCS(=O)(=O)Nc1ccc(F)c(C(=O)c2c[nH]c3ncc(-c4ccc(N5CCCC5)nc4)cc23)c1F [P-2231, Propane-1-sulfonic acid {2,4-difluoro-3-[5-(6-pyrrolidin-1-yl-pyridin-3-yl)-1H-pyrrolo[2,3-b]pyridine-3-carbonyl]-phenyl}-amide] | < 0.01 | < 5 | > 10 | < 0.1 |
| N#Cc1ccnc2[nH]cc(C(=O)c3c(F)ccc(NS(=O)(=O)c4c(F)cccc4F)c3F)c12 [P-2037, N-[3-(4-Cyano-1H-pyrrolo[2,3-b]pyridine-3-carbonyl)-2,4-difluoro-phenyl]-2,6-difluoro-benzenesulfonamide] | < 0.01 | > 10 | > 10 | < 0.01 |
| COc1ccnc2[nH]cc(C(=O)c3c(F)ccc(NS(=O)(=O)c4ccccc4F)c3F)c12 [P-2021, N-[2,4-Difluoro-3-(4-methoxy-1H-pyrrolo[2,3-b]pyridine-3-carbonyl)-phenyl]-2-fluoro-benzenesulfonamide] | < 0.1 | > 10 | > 10 | < 0.01 |
| N#Cc1cnc2[nH]cc(C(=O)c3c(F)ccc(NS(=O)(=O)c4cccnc4)c3F)c2c1 [P-2072, Pyridine-3-sulfonic acid [3-(5-cyano-1H-pyrrolo[2,3-b]pyridine-3-carbonyl)-2,4-difluoro-phenyl]-amide] | < 0.01 | > 10 | > 10 | < 0.01 |
